Test results: patent EP3406693B1, “FREEZER OIL FOR R32 REFRIGERANT AND COMPOSITION COMPRISING SAME” (NOF Corporation, priority 2016, dated 2017)

Key:
Format in all cases: physicochemical
[1] = Cloud point of additive in 1,1,1,3,3-pentafluorobutane/ethyl acetate (JIS 2269); conditions: 10 mass % in 1,1,1,3,3-pentafluorobutane/ethyl acetate 75/25 (mass ratio)
Procedure: As the aforementioned additive, any can be used as long as it has a cloud point of not less than -30°C when measured under the aforementioned conditions. Only one kind of the aforementioned additive may be used or two or more kinds thereof may be used in combination. […] The cloud point of the aforementioned additive as measured under the above-mentioned conditions is preferably not less than -20°C, more preferably not less than -15°C. The cloud point can be measured according to JIS 2269 "Testing Methods for Pour Point and Cloud Point of Crude Oil and Petroleum Products".
The cloud point when the additive (triphenyl phosphate and glycerol monooleate) used in the production of the below-mentioned refrigerating machine oil composition was dissolved at a concentration of 10 mass % in a mixed solvent of 1,1,1,3,3-pentafluorobutane and ethyl acetate at a mass ratio (1,1,1,3,3-pentafluorobutane/ethyl acetate) of 75/25 was measured according to JIS 2269. The cloud point of triphenyl phosphate measured under these conditions was -3°C and the cloud point of glycerol monooleate was 25°C.

[2] = Two-layer separation temperature of ester A1 to A8 and R32 refrigerant; conditions: ester 2 g + R32 refrigerant 6 g, range -60°C to +40°C
Procedure: Using the aforementioned ester A1 to ester A8 as a refrigerating machine oil, a two-layer separation temperature of ester A1 to ester A8 and R32 refrigerant was measured as follows. To be specific, any of ester A1 to ester A8 (2 g) and R32 refrigerant (6 g) were sealed in a pressure-resistant glass tube and cooled from 40°C at a rate of 1°C/min by using an ethanol bath containing dry ice. The temperature at which ester and R32 refrigerant was separated in two layers was measured within the range of -60°C to +40°C by visual observation. One with a two-layer separation temperature of +40°C or above was evaluated as ×, +40°C to -10°C as ○, and - 10°C or below as ⊙.

Pour point (JIS K2269) = assay: Pour point (JIS K2269)
Procedure: According to JIS K2269, the pour point of ester A1 and the like was measured.

Acid number (JIS C2101) = assay: Acid number (JIS C2101)
Procedure: According to JIS C2101, the acid number of ester A1 and the like was measured.

two-layer separation temperature ([2]; cooled from 40°C at 1°C/min, visual) [°C] | two-layer separation temperature (evaluation) [2] | pour point (Pour point (JIS K2269)) [°C] | acid number (Acid number (JIS C2101)) | SMILES | cloud point [1] [°C]
– | – | – | – | O=P(Oc1ccccc1)(Oc1ccccc1)Oc1ccccc1 [triphenyl phosphate] | -3
≤ -60 | ⊙ (- 10 °C or below as ⊙) | -50 | 0.1 or below mgKOH/g | CCCCOC(=O)CC(O)(CC(=O)OCCCC)C(=O)OCCCC [ester A6] | –
– | – | – | – | CCCCCCCC/C=C\CCCCCCCC(=O)OCC(O)CO (stereo not drawn) [glycerol monooleate] | 25
